The results in this text go back to US11779014B2, “Adjuvants” (SYNGENTA PARTICIPATIONS AG, priority 2017, dated 2023).

Common to all, as to assay type: in vivo
The test system of assay [1] is Chenopodium album (CHEAL). As to the kind of experiment: Glasshouse adjuvancy test for nicosulfuron on CHEAL. The procedure:
(§1) The biological efficacies of blends of an oleyl 20 ethoxylate uncapped surfactant with an oleyl 20 ethoxylate surfactant with an n-hexyl ether cap as adjuvants for the herbicide nicosulfuron were tested in a glasshouse against three weed species sown into standard soil in pots and cultivated under controlled conditions in a glasshouse (24/18° C. day/night; 16 hours light; 65% humidity). Nicosulfuron was added to the spray tank as a standard WG (water dispersible granule) formulation. The plants were sprayed with nicosulfuron at rates of 15 or 60 grams of pesticide per hectare using a laboratory track sprayer which delivered the aqueous spray composition at a rate of 200 litres per hectare, using a flat fan nozzle (Teejet 11002VS) at 2 bar. The adjuvants were added to the spray solution at a total rate of 0.1 or 0.2% w/v in all cases and at extra lower rates for the oleyl 20EO alone and its 1:1 blend with the oleyl 20EO n-hexyl ether to show the dose response to these adjuvants. All spray solutions also contained 10% w/w of iso-propanol. The weed species and their BBCH growth stage at spraying were Chenopodium album (CHEAL; growth stage 15), Digitaria sanguinalis (DIGSA; growth stage 14), and Commelina benghalensis (COMBE; growth stage 14). Each spray test was replicated three times. The test plants were then grown in a glasshouse under controlled conditions (24/18° C. day/night; 16 hours light; 65% humidity) and watered twice a day. The efficacy of the herbicide was assessed visually and expressed as a percentage of the leaf area killed. Samples were assessed at a time period of 21 days following application. The following tables (3-8) show the effect of blends of the two surfactants at a total concentration of 0.2 and 0.1%. In each case the blends were 1:0, 3:1, 1:1, 1:3 and 0:1 w/w of oleyl 20EO:oleyl 20 EO n-hexyl ether.
The biological efficacies of blends of oleyl 20 ethoxylate and oleyl 20EO ethoxylate with a benzoate cap as adjuvants for the herbicide nicosulfuron were tested in a glasshouse using the same method as for ‘Example 1’ but against just two weed species and with just 0.2% w/v total adjuvant concentration. The weed species and their BBCH growth stage at spraying HI were Chenopodium album (CHEAL; growth stage 13-15) and Digitaria sanguinalis (DIGSA; growth stage 14-22).
The biological efficacies of 1:1 blends of an oleyl 20 ethoxylate uncapped surfactant with oleyl 20E ethoxylate surfactants with hexanoyl, n-octanoyl or 2-ethyl hexanoyl ester caps as adjuvants for the herbicide nicosulfuron were tested in a glasshouse using the same method as for ‘Example 1’ but against just one weed species and at 0.2% w/v tital adjuvant concentration. The weed species and its BBCH growth stage at spraying was Chenopodium album (CHEAL; growth stage 15).

Assay [2] relates to Commelina benghalensis (COMBE). The assay can be described thus: Glasshouse adjuvancy test for nicosulfuron on COMBE. Particulars: 21 DAA. The procedure: as §1
For assay [3], the system named is Chenopodium album (CHEAL). The assay can be described thus: Glasshouse adjuvancy test for fomesafen (sodium salt) on CHEAL. Particulars: total surfactant 0.2% w/v, 21 days. The procedure:
Fomesafen sodium salt was added to the spray tank as a standard SL (soluble concentrate) formulation. The plants were sprayed with fomesafen (sodium salt) at rates of 100 or 200 grams of sodium fomesafen per hectare using a laboratory track sprayer which delivered the aqueous spray composition at a rate of 200 litres per hectare, using a flat fan nozzle (Teejet 11002VS) at 2 bar. The spray solutions also contained the oleyl 20EO alone or in the 1:1 blends with the capped surfactants. The adjuvants were added to the spray solution at a total surfactant rate of 0.2% w/v. All spray solutions also contained 10% w/w of iso-propanol. The weed specie and its BBCH growth stage at spraying was Chenopodium album (CHEAL; growth stage 15). Each spray test was replicated three times. The test plants were then grown in a glasshouse under controlled conditions (24/18° C. day/night; 16 hours light; 65% humidity) and watered twice a day. The efficacy of the herbicide was assessed visually and expressed as a percentage of the leaf area killed. Samples were assessed at a time period of 21 days following application.

Assay [4] deals with Brachiaria platyphylla (BRAPL). As to the kind of experiment: Glasshouse adjuvancy test for mesotrione on BRAPL. As to conditions: total surfactant 0.2% w/v, 21 days. The procedure: (§2) Mesotrione was added to the spray tank as a standard SC (suspension concentrate) formulation. The plants were sprayed with mesotrione at rates of 30 or 60 grams of pesticide per hectare using a laboratory track sprayer which delivered the aqueous spray composition at a rate of 200 litres per hectare, using a flat fan nozzle (Teejet 11002VS) and an application volume of 200 litre/ha (at 2 bar). The spray solutions also contained the oleyl 20EO alone or in 1:1 blends with the capped surfactants. The adjuvants were added to the spray solution at a total surfactant rate of 0.2% w/v. All spray solutions also contained 10% w/w of iso-propanol. The weed species and their BBCH growth stage at spraying were Brachiaria platyphylla (BRAPL; growth stage 12-13), Commelina benghalensis (COMBE; growth stage 12-14) and Digitaria sanguinalis (DIGSA; growth stage 13). Each spray test was replicated three times. The test plants were then grown in a glasshouse under controlled conditions (24/18° C. day/night; 16 hours light; 65% humidity) and watered twice a day. The efficacy of the herbicide was assessed visually and expressed as a percentage of the leaf area killed. Samples were assessed at a time period of 21 days following application

Assay [5] deals with Commelina benghalensis (COMBE). The assay can be described thus: Glasshouse adjuvancy test for mesotrione on COMBE. As to conditions: total surfactant 0.2% w/v, 21 days. The procedure:
as §2

For assay [6], the system named is Digitaria sanguinalis (DIGSA). As to the kind of experiment: Glasshouse adjuvancy test for mesotrione on DIGSA. As to conditions: total surfactant 0.2% w/v, 21 days. The procedure:
as §2

Setting [7] is: nicosulfuron 15 g ai/ha, 0.1% total surfactant concentration, 21 days, Table 6.
The mark [8] stands for this setting: nicosulfuron 15 g ai/ha, 0.2% total surfactant concentration, 21 days, Table 5.
Setting [9] is: nicosulfuron 60 g ai/ha, 0.1% total surfactant concentration, 21 days, Table 6.
Setting [10] is: nicosulfuron 60 g ai/ha, 0.2% total surfactant concentration, 21 days, Table 5.
Where [11] appears, read: nicosulfuron 15 g ai/ha, 0.1% surfactant total concentration.
Where [12] appears, read: nicosulfuron 15 g ai/ha, 0.2% surfactant total concentration.
[13] abbreviates: nicosulfuron 60 g ai/ha, 0.1% surfactant total concentration.
Setting [14] is: nicosulfuron 60 g ai/ha, 0.2% surfactant total concentration.

Take Oleyl 20EO n-hexyl ether: the Mean control in assay [1] (setting [7]) was determined as 85%; in assay [1] (setting [8]), 81.7%; in assay [1] (setting [9]), 85%; in assay [1] (setting [10]), 88.3%; in assay [2] (setting [11]), 70%; in assay [2] (setting [12]) it was 80%. The Mean control stood at 73.3% in assay [2] (setting [13]) and 72.5% in assay [2] (setting [14]).
For `CCCCCCCC/C=C\CCCCCCCCOCCOCCOCCOCCOCCOCCOCCOCCOCCOCCOCCOCCOCCOCCOCCOCCOCCOCCOCCOCCO` [Oleyl 20EO, oleyl 20 ethoxylate], the Mean control in assay [1] (dose response, nicosulfuron 15 g ai/ha, adjuvant 0.05%) turned out to be 81.7%; in assay [1] (dose response, nicosulfuron 15 g ai/ha, adjuvant 0.1%), 86.7%; in assay [1] (dose response, nicosulfuron 15 g ai/ha, adjuvant 0.2%), 83.3%; in assay [1] (dose response, nicosulfuron 60 g ai/ha, adjuvant 0.05%) it was 83.3%; in assay [1] (dose response, nicosulfuron 60 g ai/ha, adjuvant 0.1%), 80.0%; in assay [1] (dose response, nicosulfuron 60 g ai/ha, adjuvant 0.2%), 80.0%. The Mean control stood at 86.7% in assay [1] (setting [7]); 83.3% in assay [1] (setting [8]); 66.7% in assay [1] (nicosulfuron 15 g ai/ha, 0.2% w/v total adjuvant, Example 3, growth stage 13-15); 76.8% in assay [1] (nicosulfuron 15 g ai/ha, 0.2% w/v total adjuvant, Example 4, growth stage 15); 80% in assay [1] (setting [9]); 80% in assay [1] (setting [10]). The Mean control in assay [1] (nicosulfuron 60 g ai/ha, 0.2% w/v total adjuvant, Example 3, growth stage 13-15) came out at 68.3%; in assay [1] (nicosulfuron 60 g ai/ha, 0.2% w/v total adjuvant, Example 4, growth stage 15) it was 71.7%; in assay [3] (fomesafen (sodium salt) 100 g ai/ha), 68.3%; in assay [3] (fomesafen (sodium salt) 200 g ai/ha), 68.3%; in assay [4] (mesotrione 30 g ai/ha), 56.7%; in assay [4] (mesotrione 60 g ai/ha), 71.7%. The Mean control in assay [5] (mesotrione 30 g ai/ha) came to 66.7%; in assay [5] (mesotrione 60 g ai/ha) it was 76.7%; in assay [2] (setting [11]) it was 63.3%; in assay [2] (setting [12]) it was 80%; in assay [2] (setting [13]), 63.3%; in assay [2] (setting [14]) it was 72.5%. For the same molecule, the Mean control in assay [6] (mesotrione 30 g ai/ha) was found to be 68.3%; in assay [6] (mesotrione 60 g ai/ha) it was 75.0%.
